These are literature values, as cited in patent US7083803B2, “Ocular solutions” (Advanced Ocular Systems Limited, priority 2003, dated 2006).

Data set [1] concerns atopic dermatitis.
The conditions of data set [2]: administered systemically.

For `C=CC[C@@H]1/C=C(\C)C[C@H](C)C[C@H](OC)[C@H]2O[C@@](O)(C(=O)C(=O)N3CCCC[C@H]3C(=O)O[C@H](/C(C)=C/[C@@H]3CC[C@@H](O)[C@H](OC)C3)[C@H](C)[C@@H](O)CC1=O)[C@H](C)C[C@@H]2OC` [Tacrolimus, tacrolimus], the local tolerability entry in data set [1] (topical administration) is recorded as “well tolerated locally”. The “adverse effects, treated versus control groups” value in data set [1] (topical administration for dermatoses at concentrations up to 0.3%) is reported as “no significant difference”. Moreover, the “clinical improvement in atopic dermatitis” value in data set [1] (topical administration, doses 0.03%–0.3%, after 2–3 weeks treatment) is “significant clinical improvement”. Besides, in data set [2], the “renal and hepatic toxicity” value was “significant renal and hepatic toxicity”. Besides, under “chloroform”, the solubility in chloroform result is reported as “very soluble”. Besides, under “ethanol”, the solubility in ethanol entry is given as “freely soluble”. Moreover, the solubility in methanol result (methanol) is reported as “very soluble”. The solubility in water result (water) was “practically insoluble”.
